For assay [1], the system named is Candida albicans. Description: Binding affinity to Candida albicans ATCC 90028 membrane at 2 mg/ml incubated for 15 mins on ice followed by 45 mins in room temperature by fluorescence microscopic analysis. The class given is functional.
Assay [2] deals with Candida albicans. Description: Binding affinity to Candida albicans MYA-2876 membrane at 2 mg/ml incubated for 15 mins on ice followed by 45 mins in room temperature by fluorescence microscopic analysis. The class given is functional.

The source made the active and inactive calls. The rule behind the calls is not given here. Where a SMILES comes first, the peptide text is derived from it.

On to `N=C(N)NCCC[C@@H]1NC(=O)[C@H](CCCNC(=N)N)NC(=O)[C@H](Cc2c[nH]c3ccccc23)NC(=O)[C@H](Cc2c[nH]c3ccccc23)NC(=O)[C@H](CCCNC(=N)N)NC(=O)[C@H](Cc2ccccc2)NC(=O)[C@H](Cc2c[nH]cn2)NC1=O` (cyclo(FRWWRRH)), for which the outcome in assay [1] and in assay [2] was Active.

The record behind these values is ChEMBL document CHEMBL2163265, “Antifungal peptides at membrane interaction” (Eur J Med Chem, 2012).
